# Patent US6083941A, “Inhibition of NMDA receptor activity by pregnenolone sulfate derivatives” (Trustees of Boston University, priority 1998, dated 2000)
# “And” between values parts separate entries of the source, which are not always exact repeats. Equal values may be shown once. Where a name gives a salt, the structure may show the parent alone. Read-outs that look alike come from different tables or passages of the source.
# Experiments:
# Format in all cases: cell-based
# NMDA receptor = assay: Whole cell patch clamp, NMDA-induced current in cultured chick spinal cord neurons; conditions: for mean NMDA induced current: control cultures 121±16 pA
# Procedure: Cultures of dissociated spinal cord neurons were prepared as previously described (Farb, D. H., et al., J. Cell Biol., 80:651-661 (1979)). Briefly, the dissociated cells from 7-day chick embryos were plated on collagen-coated 35-mm tissue culture dishes in Eagle's minimum essential medium supplemented with 2.4 mM glutamine, 10% (v/v) heat-inactivated horse serum, 5% (v/v) chick embryo extract and antibiotics. Cultures were maintained in a humidified atmosphere of 5% CO2, 95% air at 37°. Cytarabine (1 μM) was added to the culture medium after 36 hr. of the initial plating to inhibit the proliferation of non-neuronal cells. One day later, this medium was replaced with a similar medium supplemented with 20.5 mM glucose, 19 mM KCl, and 2.5% chick embryo extract. Fresh medium was added twice weekly. Cultured neurons were used in experiments within 2-4 weeks after plating.
# Experiments were carried out in 35-mm tissue culture dishes on the stage of an inverted phase contrast microscope. Whole cell currents were recorded by the whole cell variant of the patch clamp technique (Hamill, O. P., et al., Pfagers Arch. 891:85-100 (1981)). Patch electrodes had tip openings of about […] and resistances of 3-8 M.OMEGA. using an intracellular solution comprised of the following (in mM): 140 CsCl, 11 EGTA, and 10 HEPES (pH adjusted to 7.2 with CsOH). In experiments in which a high concentration of glycine was used, the intracellular solution was replaced with a low chloride (10 mM) pipette solution. This solution contained the following (in mM): 140 potassium gluconate, 10 KCl, 8 sodium gluconate, 11 EGTA, and 10 HEPES (pH adjusted to 7.2 with KOH). To prevent a marked run-down of NMDA-induced current at high NMDA concentrations, 4 mM potassium ATP was included in the intracellular solution. The bath solution contained the following (in mM): 150 NaCl, 4 KCl, 1 CaCl2, and 10 HEPES (pH adjusted to 7.2 with NaOH). No glycine was added to the solutions containing NMDA, because no additional glycine was required to obtain a robust NMDA response, and there was no effect of a maximal concentration (10 μM) of glycine on 5β3αS inhibition of the NMDA response. All experiments were performed at room temperature (23-25° C.).
# Recordings were made using an Axopatch 1B patch clamp apparatus (Axon Instruments, Burlingame, Calif.). Cells with series resistances greater than 10 M.OMEGA. were rejected. After partial compensation, series resistances were between 3.5 and 6 M.OMEGA.. The holding potential was maintained at -70 mV unless otherwise noted. Currents were filtered at 1 kHz using an eight-pole Bessel filter (-3 dB) and digitized ([…]) using an on-line data acquisition system (pClamp, Axon Instruments).
# Drug solutions were applied to single neurons by pressure ejection (15 psi) from seven-barrel pipettes. Seven-barrel pressure pipettes were positioned approximately […] from the neuronal soma. Under these conditions, the drug solution in the pressure pipette rapidly and effectively replaces the solution surrounding the target neurons with less than 10% dilution (Choi, D. W., et al., Nature (Lond.) 269:342-344 (1977); Chan, C. Y., et al., Life Sci., 83:2061-2069 (1983); Chan, C. Y. and Farb, D. H., J. Neurosci., 5:2365-2373 (1985)). All drugs were obtained from Sigma, with the except of AMPA hydrobromide (Research Biochemicals) and steroids (Steraloids). Stock solutions of steroids were prepared in dimethyl sulfoxide, the final concentration of which was 0.5% (v/v). To obviate the possible effects of dimethyl sulfoxide on the relevant agonist-induced currents, all other drug solutions including NMDA, kainate, AMPA and external buffer (in the pressure pipette) also contained 0.5% dimethyl sulfoxide. […]
# [1] = tested on: NMDA-induced cell death in primary neuronal cultures of rat hippocampal formation; assay: Trypan blue exclusion, NMDA-induced cell death (excitotoxicity) in primary hippocampal cultures; conditions: Rattus norvegicus, 200 μM 17β-estradiol hemisuccinate
# From the text: Trypan blue exclusion was used to evaluate the ability of derivatives of pregnenolone sulfate to inhibit NMDA-induced cell death in primary neuronal cultures of rat hippocampal formation.
# Mixed neuronal and glial cultures of hippocampal tissue were derived from fetal rats on day 18 of embryonic development and were maintained in culture for 16 to 24 days (Brewer, G. J., Brain Res., 494: 65-74 (1989)). Care for the animals used in this study was in accordance with institutional guidelines. Hippocampal tissue from Sprague-Dawley rat pups was collected immediately following removal from dams sacrificed with CO2 on embryonic day 18. Cells were dissociated by trituration in Ca^2 +/Mg^2 + free Hank's basic salt solution supplemented with 4.2 mM bicarbonate, 1 mM sodium pyruvate, 20 mM HEPES, 3 mg/ml BSA, and pelleted by centrifugation (900 rpm, 3 min). The resulting pellet was suspended in DMEM supplemented with 2.4 mg/ml BSA, 26.5 mM sodium bicarbonate, 1 mM sodium pyruvate, 20 mM HEPES, 10% FBS, 100 units/ml penicillin, 100 μg/ml streptomycin, and a modification of Brewers B16 defined components (with […] vitamin B12 and without catalase, glutathione, and superoxide dismutase) (Pike, C. J., et al., Neurosci. 13:1676-87 (1993)) and plated onto poly-L-lysine coated 24 well culture dishes (Nunclon) at a density of 15,000 cells/cm^2 and were maintained in a humidified incubator in 5% CO2 /95% air at 37° C. After 5 days in vitro, nonneuronal cell division was inhibited by exposure to 2×10^-6 M cytosine arabinoside for 48 hrs. Cells were subsequently maintained in medium identical to that used for platting without BSA or FBS.
# The number of living neurons was determined by assessing the ability of cells to exclude trypan blue 16 hrs. after the addition of drug solutions to the medium of individual culture wells (Dawson, V. L., et al., Proc. Natl. Acad. Sci. USA, 88:6368-6371 (1991)). Drugs were introduced to cultures in 100 μl of conditioned media, collected from experimental cultures just prior to treatment, to a final volume of 0.5 ml. NMDA was dissolved in DMEM at concentrations of 0-5 mM so that addition of 10 μl yielded final concentrations of 0-100 μM. MK-801, a positive control, was dissolved in DMEM at a concentration of 1 mM so that addition of 5 μl yielded a final concentration of 10 μM. Control cultures were exposed only to an equivalent volume of DMEM, and concentration of DMSO (0.5%). The concentrations of the pregnenolone sulfate derivatives were as follows: 10-100 μM 5β3αS, 100 μM 5β3α hemisuccinate and 200 μM 17β-estradiol hemisuccinate.
# After exposure to drugs, the medium was replaced by 0.1 M sodium phosphate buffer/0.4% trypan blue. Cell death was assessed by counting the number of trypan blue positive and negative neurons in five high power fields per culture well with an inverted phase contrast microscope using both bright field and phase settings. Cell death is expressed as the ratio of the number of trypan blue positive to total number of cells counted in each well×100 (percent cell death).
# [2] = molecular target: T1, recombinant NMDA receptors (NR1100 and NR2A subunits) (Rattus norvegicus, UniProt P35439+Q00959); assay: Two electrode voltage-clamp of Xenopus oocytes expressing recombinant NMDA receptors
# T1 construct: expressed in transfected cells; host or cells: Xenopus laevis oocytes injected with in vitro transcribed mRNA
# T1 sequence (Q00959 23-1464, other chains not shown): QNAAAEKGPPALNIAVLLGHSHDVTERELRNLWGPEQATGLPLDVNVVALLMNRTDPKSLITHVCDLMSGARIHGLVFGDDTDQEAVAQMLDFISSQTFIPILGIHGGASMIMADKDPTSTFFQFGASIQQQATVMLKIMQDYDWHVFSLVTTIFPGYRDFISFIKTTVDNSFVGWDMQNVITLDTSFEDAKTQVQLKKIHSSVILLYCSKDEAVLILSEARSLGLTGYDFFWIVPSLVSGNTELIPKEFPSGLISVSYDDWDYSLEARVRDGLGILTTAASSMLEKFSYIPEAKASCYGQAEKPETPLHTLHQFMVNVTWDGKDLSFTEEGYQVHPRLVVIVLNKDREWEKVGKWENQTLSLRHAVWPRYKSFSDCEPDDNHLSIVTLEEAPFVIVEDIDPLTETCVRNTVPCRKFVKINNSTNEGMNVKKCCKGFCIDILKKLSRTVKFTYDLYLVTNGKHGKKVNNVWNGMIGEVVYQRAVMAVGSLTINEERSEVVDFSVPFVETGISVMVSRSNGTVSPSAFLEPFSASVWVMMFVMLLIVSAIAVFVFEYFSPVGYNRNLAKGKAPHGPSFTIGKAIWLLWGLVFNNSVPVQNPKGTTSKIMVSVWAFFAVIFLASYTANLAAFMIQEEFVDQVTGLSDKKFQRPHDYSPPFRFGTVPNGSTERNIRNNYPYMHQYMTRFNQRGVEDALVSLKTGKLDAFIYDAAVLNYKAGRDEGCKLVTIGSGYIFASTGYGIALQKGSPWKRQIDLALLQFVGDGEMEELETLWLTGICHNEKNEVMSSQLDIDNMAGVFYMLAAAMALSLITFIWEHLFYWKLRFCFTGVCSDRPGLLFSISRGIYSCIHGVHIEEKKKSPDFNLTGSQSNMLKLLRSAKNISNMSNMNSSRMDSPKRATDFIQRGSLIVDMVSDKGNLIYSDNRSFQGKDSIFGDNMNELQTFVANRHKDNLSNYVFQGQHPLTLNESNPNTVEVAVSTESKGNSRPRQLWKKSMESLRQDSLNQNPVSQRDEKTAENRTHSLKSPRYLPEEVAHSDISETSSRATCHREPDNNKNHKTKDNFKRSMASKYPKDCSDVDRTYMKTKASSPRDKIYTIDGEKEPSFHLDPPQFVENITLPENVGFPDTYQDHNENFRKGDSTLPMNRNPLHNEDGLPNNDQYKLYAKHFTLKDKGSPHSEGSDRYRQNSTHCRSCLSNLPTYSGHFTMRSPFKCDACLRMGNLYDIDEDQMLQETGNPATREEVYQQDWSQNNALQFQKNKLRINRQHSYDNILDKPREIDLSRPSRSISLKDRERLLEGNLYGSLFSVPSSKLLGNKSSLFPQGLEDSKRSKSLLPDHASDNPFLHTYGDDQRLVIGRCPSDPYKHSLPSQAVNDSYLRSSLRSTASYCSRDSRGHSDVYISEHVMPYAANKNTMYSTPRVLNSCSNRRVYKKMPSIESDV
# Procedure: RNA preparation. mRNA were prepared through in vitro transcription of NR1100 and NR2A cDNAs using the mMessage mMachine kit (Ambion, Tex.). NR1100 and NR2A clones were kindly provided by Dr. Zukin and Dr. Nakanishie.
# Xenopus expression system. Female, oocyte positive Xenopus laevis frogs were purchased from Nasco, Inc. (WI). The frogs were kept on a 12/12 light-dark cycle and maintained on a diet of chopped calf liver every 3 days. Prior to surgery, frogs were anesthetized in a 0.15% Tricaine solution (Sigma, Mo.) for 30-45 minutes. Ovarian sections containing the follicular oocytes were removed through a lateral abdominal incision and were immediately placed in calcium-free ND96 solution (in mM):96 NaCl; 1 MgCl2; 2 KCl; 5 Hepes; 2.5 pyruvate (pH adjusted to 7.4 with NaOH). Following a 2 hr. incubation in 0.2% collagenase type II (Sigma, Mo.) at room temperature, individual defolliculated oocytes were transferred into 60×15 mm glass petri dishes containing ND96 solution (in mM): 96 NaCl; 1 MgCl2; 2 KCl; 1.8 CaCl2; 5 Hepes; 2.5 pyruvate (pH adjusted to 7.4 with NaOH). The isolated oocytes were maintained in an incubator at 18° C. On the following date, batches of 20-40 selected oocytes (Dumont stage V and VI) were injected with 50 nl of prepared RNA solution (0.5 ng of NR1 and 12 ng of NR2A mRNAs per oocyte) using an electronic microinjector (Drummond, Pa.). The injected oocytes were used for electrophysiological experiments following 4-10 day incubation at 18° C.
# Electrical recording and drug application. The ion current recordings were obtained in two electrodes voltage-clamp mode using an Axoclamp-2A amplifier (Axon Instruments, Inc., CA). The microelectrodes were fabricated with a programmed puller (Sutter Instrument Co., CA) from glass capillaries (Dagan, Minn.) and filled with 3M KCl solution. The resistance of filled microelectrodes was in the range of 2.5-3.5 M.OMEGA.. The oocytes were clamped at a holding potential of -70 mV. The membrane current was filtered at 500 Hz and sampled at 100 Hz frequency. The drugs were applied using a gravity driven external perfusion system. The data acquisition and external perfusion control were done using SuperScopeII software package (GW Instruments, MA). All experiments were performed at room temperature of 22-24° C.
# The degree of modulation of the amino acid response by steroids, the percent change, was defined at (I'/I-1)×100%, where I and I' are respectively the agonist-induced currents in the absence and presence of steroid. Throughout, results are expressed as mean±SEM; statistical comparison of groups was carried out using Student's t test.
compound,measurement,setting,value
"O[C@H](CS)[C@H](O)CS (racemic) [DTT, dithiothreitol, reference compound]","NMDA current, % of control","NMDA receptor; 4 mM DTT, after 180 seconds of exposure",273±19%
same,mean NMDA induced current,NMDA receptor; after approximately an hour of exposure to 4 mM DTT,326±82 pA
"CC(=O)[C@H]1CC[C@H]2[C@@H]3CC[C@H]4C[C@@H](OS(=O)(=O)O)CC[C@]4(C)[C@H]3CC[C@]12C [5α3βS, 5α-pregnan-3β-ol-20-one sulfate, reference compound]",inhibition of the NMDA-induced current,NMDA receptor; steroid concentration not given,1±2.6%
C[C@]12CC[C@@H]3c4ccc(OC(=O)CCC(=O)O)cc4CC[C@H]3[C@@H]1CC[C@@H]2O [17β-estradiol hemisuccinate],inhibition at 200 µM,[1]; read-out: inhibition of the cell death induced by chronic NMDA,40%
same,inhibition at 200 µM,[1]; read-out: inhibition of the cell death produced by short term exposure to NMDA,65%
"C[C@]12CC[C@H](OS(=O)(=O)O)CC1=CC[C@@H]1[C@@H]2CC[C@]2(C)C(=O)CC[C@@H]12 [DHEAS, Dehydroepiandrosterone sulfate, reference compound]",potentiation of the NMDA response,NMDA receptor; concentration not in the sentence (100 μM in Table 1),28.8±8.8% and 28.8%
"CCN1C(=O)C=CC1=O [NEM, N-ethylmaleimide, reference compound]",mean NMDA induced current,"NMDA receptor; 5 min 4 mM DTT, then 2 min 4 mM DTT plus 300 μM NEM",367±82 pA
"CN[C@H](CC(=O)O)C(=O)O [NMDA, N-methyl-D-aspartate]",NMDA nH,NMDA receptor; in the absence of 5β3αS,1.01
same,NMDA Imax,"NMDA receptor; in the absence of 5β3αS, normalized to the peak current induced by 100 μM NMDA",2.56
same,EC50,"NMDA receptor; read-out: NMDA EC50, in the absence of 5β3αS",156 µM
same,EC50,[2],62 ± 4 µM
"CCCCC/C=C\C/C=C\C/C=C\C/C=C\CCCC(=O)O [arachidonic acid, reference compound]",potentiation of the 30 μM NMDA response,NMDA receptor; 10 μM arachidonic acid alone,120±35%
same,potentiation of the NMDA response,NMDA receptor; 10 μM arachidonic acid in the presence of 100 μM PS,158±22%
"NCCCNCCCCNCCCN [spermine, reference compound]",potentiation of the NMDA induced current,NMDA receptor; 100 μM spermine (maximal),136±33%
same,potentiation of the NMDA induced current,NMDA receptor; 250 μM spermine,67±21%
